Measurements taken from patent US4430341A, “Water soluble pesticidal quaternary ammonium salt compounds” (Union Carbide Corporation, priority 1977, dated 1984).

Experiments:
[1] = test system: bean aphid (Aphis fabae Scop.); experiment: Bean Aphid Foliage Spray Test; type: in vivo; design: key: A: Excellent control; B: Partial control; C: No control; settings: 500 parts per million; 24 hour holding period
Description: (§1) The compound of EXAMPLE IV was evaluated to determine its pesticidal activity against mites and certain insects, including an aphid, a caterpillar, a beetle and a fly.
(§2) Suspensions of the test compound was prepared by dissolving one gram of compound in 50 milliliters of acetone in which had been dissolved 0.1 gram (10 percent of the weight of compound) of an alkylphenoxy polyethoxyethanol surfactant, as an emulsifying or dispersing agent. The resulting solution was mixed into 150 milliliters of water to give roughly 200 of milliliters of a suspension containing the compound in finely divided form. The thus-prepared stock suspension contained 0.5 percent by weight of test compound. The test concentrations in parts per million by weight employed in the tests described hereinbelow were obtained by appropriate dilutions of the stock suspension with water. The test procedures were as follows.
Adults and nymphal stages of the bean aphid (Aphis fabae Scop.) reared on potted dwarf nasturtium plants at 65°-70° F. and 50-70 percent relative humidity, constituted the test insects. […]
The potted plants (one pot per compound tested) infested with 100-150 aphids, were placed on a revolving turntable and sprayed with 100-110 milliliters of test compound formulation by use of a DeVilbiss spray gun set at 40 psig. air pressure. […] Percent mortality was recorded for various concentration levels. […]

[2] = test system: two-spotted mite (Tetranychus urticae Koch); experiment: Mite Foliage Spray Test; type: in vivo; design: key: A: Excellent control; B: Partial control; C: No control; settings: 500 parts per million; six days
Description: as §1, §2
Adults and nymphal stages of the two-spotted mite (Tetranychus urticae Koch), reared on Tendergreen bean plants at 80±5 percent relative humidity, were the test organisms. Infested leaves from a stock culture were placed on the primary leaves of two bean plants six to eight inches in height, growing in a two- and-a-half inch clay pot. 150-200 mites, a sufficient number for testing, transferred from the excised leaves to the fresh plants in a period of twenty-four hours. […]

[3] = test system: southern armyworm (Prodenia Eridania, (Cram.)); experiment: Southern Armyworm Leaf Spray Test; type: in vivo; design: key: A: Excellent control; B: Partial control; C: No control; settings: 500 parts per million; three days
Description: as §1, §2
Larvae of the southern armyworm (Prodenia Eridania, (Cram.), reared on Tendergreen bean plants at a temperature of 80±5° F. and relative humidity of 50±5 percent, constituted the test insects. […]
This application which lasted 25 seconds was sufficient to wet plants to run-off. […] Percent mortality was recorded for various concentration levels. […]

[4] = test system: Mexican bean beetle (Epilachna varivestis, Muls.); experiment: Mexican Bean Beetle Leaf Spray Test; type: in vivo; design: key: A: Excellent control; B: Partial control; C: No control; settings: 500 parts per million; three days
Description: as §1, §2
Fourth instar larvae of the Mexican bean beetle (Epilachna varivestis, Muls.) reared on Tendergreen bean plants at a temperature of 80±5° and 50±5 percent relative humidity, were the test insects.
The test compound was formulated by diluting the stock suspension with water to give a suspension containing 500 parts of test compound per million parts of final formulation. […]

[5] = test system: house flies (Musca domestica, L.); experiment: Fly Bait Test; type: in vivo; design: key: A: Excellent control; B: Partial control; C: No control; settings: 500 parts per million in sugar solution bait; twenty four hours
Description: as §1, §2
Four to six day old adult house flies (Musca domestica, L.) reared according to the specifications of the Chemical Specialties Manufacturing Association (Blue Book, McNair-Dorland Co., N.Y., 1954; pages 243-244, 261) under controlled conditions of 80±° F. and 50±5 percent relative humidity, were the test insects. […]

Bean = experiment: Phytotoxicity test, Bean; type: in vivo; design: key: 1: no perceptible injury; 2: intermediate degrees of injury based upon the number and extent to which leaves were injured; 3: intermediate degrees of injury based upon the number and extent to which leaves were injured; 4: intermediate degrees of injury based upon the number and extent to which leaves were injured; 5: the plant was dead; settings: 2500 parts per million; ten days
Description: (§3) Experiments were also conducted to determine the phytotoxicity of a representative composition with respect to healthy fresh plants. A solution of the compound prepared as described above to provide a concentration of 2500 parts per million of the test compound. The test plants were sprayed in accordance with the procedure described above for the Mite Foliage Spray Test so as to deliver approximately 100 milliliters of test solution to the leaves of each plant tested. The sprayed plants and controls were set aside for approximately one hour to allow the solutions to dry and were then placed in the greenhouse. After ten days the plants were visually inspected to determine the extent of foliage injury. A rating of 1 indicates no perceptible injury; 5 indicates the plant was dead and ratings of 2, 3 and 4 indicate intermediate degrees of injury based upon the number and extent to which leaves were injured.

Cot. [6] = experiment: Phytotoxicity test, Cot. (second column); type: in vivo; design: key: 1: no perceptible injury; 2: intermediate degrees of injury based upon the number and extent to which leaves were injured; 3: intermediate degrees of injury based upon the number and extent to which leaves were injured; 4: intermediate degrees of injury based upon the number and extent to which leaves were injured; 5: the plant was dead; settings: 2500 parts per million; ten days
Description: as §3

Tom. = experiment: Phytotoxicity test, Tom.; type: in vivo; design: key: 1: no perceptible injury; 2: intermediate degrees of injury based upon the number and extent to which leaves were injured; 3: intermediate degrees of injury based upon the number and extent to which leaves were injured; 4: intermediate degrees of injury based upon the number and extent to which leaves were injured; 5: the plant was dead; settings: 2500 parts per million; ten days
Description: as §3

Cot. [7] = experiment: Phytotoxicity test, Cot. (fourth column); type: in vivo; design: key: 1: no perceptible injury; 2: intermediate degrees of injury based upon the number and extent to which leaves were injured; 3: intermediate degrees of injury based upon the number and extent to which leaves were injured; 4: intermediate degrees of injury based upon the number and extent to which leaves were injured; 5: the plant was dead; settings: 2500 parts per million; ten days
Description: as §3

Soybean = experiment: Phytotoxicity test, Soybean; type: in vivo; design: key: 1: no perceptible injury; 2: intermediate degrees of injury based upon the number and extent to which leaves were injured; 3: intermediate degrees of injury based upon the number and extent to which leaves were injured; 4: intermediate degrees of injury based upon the number and extent to which leaves were injured; 5: the plant was dead; settings: 2500 parts per million; ten days
Description: as §3

Water solubility = type: physicochemical; settings: 25° C.

With `CN(C(=O)C[N+](C)(C)CCOCC[N+](C)(C)CC(=O)N(C)C(=O)Oc1cccc2ccccc12)C(=O)Oc1cccc2ccccc12` [EXAMPLE IV] the “Insecticidal and Miticidal: Aphid” value [1] was “B”, the “Insecticidal and Miticidal: Mite” value [2] was “C” and the “Insecticidal and Miticidal: So. Army Worm” value [3] was “A”. The “Insecticidal and Miticidal: Mexican Bean Beetle” value [4] was “A”, the “Insecticidal and Miticidal: House Fly” value [5] was “A” and the “Herbicidal: Bean” value (Bean) was 2. The “Herbicidal: Cot.” value (Cot. [6]) was 1, the “Herbicidal: Tom.” value (Tom.) was 1 and the “Herbicidal: Cot.” value (Cot. [7]) was 2. For the same compound, the “Herbicidal: Soybean” value (Soybean) was 2, the “% Water Solubility” value (Water solubility) was 20% and the solubility (Water solubility; water) was 200 mg/mL.
